Legend:
αllbβ3 integrin = target: T1, αllbβ3 integrin (Homo sapiens, UniProt P05106+P08514); assay: ELISA: inhibition of binding of αllbβ3 integrin membrane preparation to coated extracellular matrix protein; conditions: human platelet membrane preparation
T1 construct: Human platelet membrane preparations were used as a source of αllbβ3 integrin; from tissue; host or cells: human platelets (membrane preparation)
In short: (§1)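 Wells were coated with fibrinogen or vitronectin (10 µg/well), and integrin binding was measured by ELISA. αIIbβ3 came from human platelet membranes and αVβ3 from WM-115 cells, each preincubated with compound. Bound integrin was detected with a rabbit anti-β3 antibody, an HRP secondary and a colorimetric readout.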

αVβ3 integrin = target: T2, αVβ3 integrin (Homo sapiens, UniProt P05106+P06756); assay: ELISA: inhibition of binding of αVβ3 integrin (source WM-115 cell line) to coated extracellular matrix protein; conditions: WM-115 cell line as integrin source
T2 construct: the cell line WM-115 was used as a source of αVβ3 integrin; endogenous in cells; host or cells: WM-115 cell line
In short: as §1

T2 sequence (P06756 31-889 limits assumed): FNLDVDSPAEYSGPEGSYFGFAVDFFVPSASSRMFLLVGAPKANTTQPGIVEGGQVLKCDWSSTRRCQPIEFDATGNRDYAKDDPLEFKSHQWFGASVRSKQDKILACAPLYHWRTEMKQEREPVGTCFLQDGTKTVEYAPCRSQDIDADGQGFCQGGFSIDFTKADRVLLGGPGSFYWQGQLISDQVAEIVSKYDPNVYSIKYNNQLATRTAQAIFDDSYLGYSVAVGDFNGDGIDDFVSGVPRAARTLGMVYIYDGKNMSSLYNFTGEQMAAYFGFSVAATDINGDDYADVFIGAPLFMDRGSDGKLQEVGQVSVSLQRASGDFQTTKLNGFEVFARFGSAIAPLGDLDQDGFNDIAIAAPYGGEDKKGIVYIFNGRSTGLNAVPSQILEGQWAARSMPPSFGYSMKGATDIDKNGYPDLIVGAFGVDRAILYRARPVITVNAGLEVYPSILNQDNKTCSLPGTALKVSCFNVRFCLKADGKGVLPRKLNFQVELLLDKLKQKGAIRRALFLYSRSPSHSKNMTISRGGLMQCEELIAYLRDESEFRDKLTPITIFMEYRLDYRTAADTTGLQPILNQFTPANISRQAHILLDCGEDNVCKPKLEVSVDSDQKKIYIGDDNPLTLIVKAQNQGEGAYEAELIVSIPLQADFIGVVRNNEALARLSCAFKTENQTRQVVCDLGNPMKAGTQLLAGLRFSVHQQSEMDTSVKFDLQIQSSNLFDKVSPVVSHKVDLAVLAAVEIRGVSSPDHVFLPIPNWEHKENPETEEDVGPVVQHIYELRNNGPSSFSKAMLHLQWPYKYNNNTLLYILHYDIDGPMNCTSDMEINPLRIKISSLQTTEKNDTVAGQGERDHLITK
T2 sequence (P06756 891-1048 partner limits assumed): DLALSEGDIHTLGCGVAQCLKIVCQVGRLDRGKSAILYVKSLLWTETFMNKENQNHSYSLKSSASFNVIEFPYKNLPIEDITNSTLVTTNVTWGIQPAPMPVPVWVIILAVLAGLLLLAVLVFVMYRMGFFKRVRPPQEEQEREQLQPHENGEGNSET
T2 sequence (P05106 27-788): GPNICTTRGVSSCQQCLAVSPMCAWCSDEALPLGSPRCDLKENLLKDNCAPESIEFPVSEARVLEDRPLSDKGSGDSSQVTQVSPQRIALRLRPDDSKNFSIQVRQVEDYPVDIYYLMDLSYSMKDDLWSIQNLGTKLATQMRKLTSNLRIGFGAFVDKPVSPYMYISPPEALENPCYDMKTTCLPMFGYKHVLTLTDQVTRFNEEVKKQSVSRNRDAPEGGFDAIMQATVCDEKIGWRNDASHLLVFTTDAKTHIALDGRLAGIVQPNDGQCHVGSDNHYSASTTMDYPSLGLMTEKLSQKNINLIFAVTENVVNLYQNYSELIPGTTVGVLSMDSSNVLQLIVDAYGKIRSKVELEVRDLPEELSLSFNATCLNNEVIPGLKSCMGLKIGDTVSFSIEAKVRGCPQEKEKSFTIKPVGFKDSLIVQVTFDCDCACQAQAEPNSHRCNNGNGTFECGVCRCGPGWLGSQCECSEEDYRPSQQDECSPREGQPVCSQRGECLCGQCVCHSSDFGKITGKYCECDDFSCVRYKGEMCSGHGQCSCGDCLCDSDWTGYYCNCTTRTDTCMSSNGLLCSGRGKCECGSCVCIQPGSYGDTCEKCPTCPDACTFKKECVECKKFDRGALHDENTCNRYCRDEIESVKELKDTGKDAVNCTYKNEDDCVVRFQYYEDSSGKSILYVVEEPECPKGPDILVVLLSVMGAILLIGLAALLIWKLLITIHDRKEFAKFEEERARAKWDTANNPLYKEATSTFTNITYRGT
T1 sequence (P08514 32-887 limits assumed): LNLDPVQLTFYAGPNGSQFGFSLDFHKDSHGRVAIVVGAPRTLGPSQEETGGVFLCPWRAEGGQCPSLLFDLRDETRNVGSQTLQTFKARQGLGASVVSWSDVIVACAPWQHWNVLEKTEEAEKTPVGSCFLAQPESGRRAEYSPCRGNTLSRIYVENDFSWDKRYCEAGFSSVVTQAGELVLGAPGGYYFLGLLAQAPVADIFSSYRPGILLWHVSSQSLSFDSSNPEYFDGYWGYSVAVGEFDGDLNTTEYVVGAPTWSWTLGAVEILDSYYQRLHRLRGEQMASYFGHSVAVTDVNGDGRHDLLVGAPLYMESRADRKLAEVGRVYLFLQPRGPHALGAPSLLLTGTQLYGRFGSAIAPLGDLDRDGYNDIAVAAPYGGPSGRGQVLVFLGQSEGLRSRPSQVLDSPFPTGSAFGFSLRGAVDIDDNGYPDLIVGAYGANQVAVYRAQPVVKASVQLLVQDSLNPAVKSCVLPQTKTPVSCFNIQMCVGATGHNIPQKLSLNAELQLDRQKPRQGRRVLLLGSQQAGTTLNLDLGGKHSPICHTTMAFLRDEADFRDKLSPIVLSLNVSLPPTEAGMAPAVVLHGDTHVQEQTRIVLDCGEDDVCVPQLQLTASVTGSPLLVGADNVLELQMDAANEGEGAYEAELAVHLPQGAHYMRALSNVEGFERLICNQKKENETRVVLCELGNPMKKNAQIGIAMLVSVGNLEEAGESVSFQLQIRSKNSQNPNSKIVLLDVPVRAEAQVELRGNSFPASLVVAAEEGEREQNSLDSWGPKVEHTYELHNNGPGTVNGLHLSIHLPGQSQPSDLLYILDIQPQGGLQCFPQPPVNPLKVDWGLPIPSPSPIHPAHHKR
T1 sequence (P08514 891-1039 partner limits assumed): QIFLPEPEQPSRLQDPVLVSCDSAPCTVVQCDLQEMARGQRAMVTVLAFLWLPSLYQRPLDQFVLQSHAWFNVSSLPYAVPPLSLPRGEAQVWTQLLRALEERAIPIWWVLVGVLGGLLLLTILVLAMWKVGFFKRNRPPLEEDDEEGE
T1 sequence (P05106 27-788): as the sequence (P05106 27-788) above

| Structure (SMILES) | INHIBITION @ 250 uM RECEPTOR allBb3 SUBSTRATE FIBRINOGEN (αllbβ3 integrin) | INHIBITION 250 uM RECEPTOR allBb3 SUBSTRATE VITRONECTIN (αllbβ3 integrin) | INHIBITION 250 uM RECEPTOR aVb3 SUBSTRATE FIBRINOGEN (αVβ3 integrin) |
| --- | --- | --- | --- |
| CCOC1OC(COCc2ccccc2)C(O)C(OCc2cccc(N)c2)C1NC(=O)c1ccc(C(=O)O)cc1 (single isomer, unassigned) [Compound 68] | − (0% to 35% inhibition at 250 micromolar) | ++ (61% to 80% inhibition at 250 micromolar) | ++ (61% to 80% inhibition at 250 micromolar) |
| CCOC1OC(COCc2ccccc2)C(O)C(OCc2cccc(N)c2)C1NC(=O)c1ccc(C(=O)O)cc1 (single isomer, unassigned) [Compound 69] | − (0% to 35% inhibition at 250 micromolar) | +++ (81% to 100% inhibition at 250 micromolar) | +++ (81% to 100% inhibition at 250 micromolar) |
| Nc1cccc(COC2C(O)C(COCc3ccccc3)OC(O)C2NC(=O)c2ccc(C(=O)O)cc2)c1 (single isomer, unassigned) [Compound 70] | + (36% to 60% inhibition at 250 micromolar) | +++ (81% to 100% inhibition at 250 micromolar) | +++ (81% to 100% inhibition at 250 micromolar) |
| Nc1cccc(COC2C(O)C(COCc3ccccc3)OC(O)C2NC(=O)c2ccc(C(=O)O)cc2)c1 (single isomer, unassigned) [Compound 71] | − (0% to 35% inhibition at 250 micromolar) | +++ (81% to 100% inhibition at 250 micromolar) | +++ (81% to 100% inhibition at 250 micromolar) |
| CCOC1OC(COCc2ccc(Br)cc2)C(O)C(OCc2cccc(N)c2)C1NC(=O)c1ccc(C(=O)O)cc1 (single isomer, unassigned) [Compound 72] | + (36% to 60% inhibition at 250 micromolar) | +++ (81% to 100% inhibition at 250 micromolar) | +++ (81% to 100% inhibition at 250 micromolar) |
| CCOC1OC(COCc2ccc(Br)cc2)C(O)C(OCc2cccc(N)c2)C1NC(=O)c1ccc(C(=O)O)cc1 (single isomer, unassigned) [Compound 73] | ++ (61% to 80% inhibition at 250 micromolar) | +++ (81% to 100% inhibition at 250 micromolar) | − (0% to 35% inhibition at 250 micromolar) |
| Nc1cccc(COC2C(O)C(COCc3ccc(Br)cc3)OC(O)C2NC(=O)c2ccc(C(=O)O)cc2)c1 (single isomer, unassigned) [Compound 74] | − (0% to 35% inhibition at 250 micromolar) | +++ (81% to 100% inhibition at 250 micromolar) | − (0% to 35% inhibition at 250 micromolar) |
| Nc1cccc(COC2C(O)C(COCc3ccc(Br)cc3)OC(O)C2NC(=O)c2ccc(C(=O)O)cc2)c1 (single isomer, unassigned) [Compound 75] | + (36% to 60% inhibition at 250 micromolar) | +++ (81% to 100% inhibition at 250 micromolar) | − (0% to 35% inhibition at 250 micromolar) |
| CCOC1OC(COCC(=O)O)C(O)C(OCc2cccc(N)c2)C1NC(=O)c1ccc(Cl)cc1 (single isomer, unassigned) [Compound 76] | − (0% to 35% inhibition at 250 micromolar) | − (0% to 35% inhibition at 250 micromolar) | − (0% to 35% inhibition at 250 micromolar) |
| CCOC1OC(COCC(=O)O)C(O)C(OCc2cccc(N)c2)C1NC(=O)c1ccc(Cl)cc1 (single isomer, unassigned) [Compound 77] | ++ (61% to 80% inhibition at 250 micromolar) | +++ (81% to 100% inhibition at 250 micromolar) | + (36% to 60% inhibition at 250 micromolar) |
| CCOC1OC(COCc2ccc(C(=O)O)cc2)C(O)C(OCc2cccc(N)c2)C1NC(=O)c1ccc(Cl)cc1 (single isomer, unassigned) [Compound 78] | − (0% to 35% inhibition at 250 micromolar) | +++ (81% to 100% inhibition at 250 micromolar) | +++ (81% to 100% inhibition at 250 micromolar) |
| CCOC1OC(COCc2ccc(C(=O)O)cc2)C(O)C(OCc2cccc(N)c2)C1NC(=O)c1ccc(Cl)cc1 (single isomer, unassigned) [Compound 79] | + (36% to 60% inhibition at 250 micromolar) | +++ (81% to 100% inhibition at 250 micromolar) | +++ (81% to 100% inhibition at 250 micromolar) |
| Nc1cccc(COC2C(O)C(COCc3ccc(C(=O)O)cc3)OC(O)C2NC(=O)c2ccc(Cl)cc2)c1 (single isomer, unassigned) [Compound 81] | + (36% to 60% inhibition at 250 micromolar) | +++ (81% to 100% inhibition at 250 micromolar) | +++ (81% to 100% inhibition at 250 micromolar) |
| Nc1cccc(COC2C(O)C(COCc3ccc(C(=O)O)cc3)OC(O)C2NC(=O)c2ccc(Cl)cc2)c1 (single isomer, unassigned) [Compound 82] | ++ (61% to 80% inhibition at 250 micromolar) | + (36% to 60% inhibition at 250 micromolar) | ++ (61% to 80% inhibition at 250 micromolar) |
| CCOC1C(O)C(COCC(=O)O)OC(OCc2ccccc2)C1NC(=O)c1cccc(N)c1 (single isomer, unassigned) [Compound 84] | − (0% to 35% inhibition at 250 micromolar) | − (0% to 35% inhibition at 250 micromolar) | − (0% to 35% inhibition at 250 micromolar) |
| CCOC1C(O)C(COCC(=O)O)OC(OCc2ccccc2)C1NC(=O)c1cccc(N)c1 (single isomer, unassigned) [Compound 85] | − (0% to 35% inhibition at 250 micromolar) | +++ (81% to 100% inhibition at 250 micromolar) | − (0% to 35% inhibition at 250 micromolar) |
| CCOC1C(O)C(COCc2ccc(C(=O)O)cc2)OC(OCc2ccccc2)C1NC(=O)CCNC(=N)N (single isomer, unassigned) [Compound 86] | − (0% to 35% inhibition at 250 micromolar) | +++ (81% to 100% inhibition at 250 micromolar) | − (0% to 35% inhibition at 250 micromolar) |
| CCOC1C(O)C(COCc2ccc(C(=O)O)cc2)OC(OCc2ccccc2)C1NC(=O)CCNC(=N)N (single isomer, unassigned) [Compound 87] | − (0% to 35% inhibition at 250 micromolar) | +++ (81% to 100% inhibition at 250 micromolar) | − (0% to 35% inhibition at 250 micromolar) |
| CCOC1C(O)C(COCc2cccc(N)c2)OC(OCc2ccccc2)C1NC(=O)CCC(=O)O (single isomer, unassigned) [Compound 88] | − (0% to 35% inhibition at 250 micromolar) | ++ (61% to 80% inhibition at 250 micromolar) | − (0% to 35% inhibition at 250 micromolar) |
| CCOC1C(O)C(COCc2cccc(N)c2)OC(OCc2ccccc2)C1NC(=O)CCC(=O)O (single isomer, unassigned) [Compound 89] | − (0% to 35% inhibition at 250 micromolar) | +++ (81% to 100% inhibition at 250 micromolar) | + (36% to 60% inhibition at 250 micromolar) |
| COCC1OC(OCc2ccccc2)C(NC(=O)CCNC(=N)N)C(OCC(=O)O)C1O (single isomer, unassigned) [Compound 90] | − (0% to 35% inhibition at 250 micromolar) | +++ (81% to 100% inhibition at 250 micromolar) | − (0% to 35% inhibition at 250 micromolar) |
| COCC1OC(OCc2ccccc2)C(NC(=O)CCNC(=N)N)C(OCC(=O)O)C1O (single isomer, unassigned) [Compound 91] | + (36% to 60% inhibition at 250 micromolar) | + (36% to 60% inhibition at 250 micromolar) | − (0% to 35% inhibition at 250 micromolar) |
